Source: patent US11969428B2, “Methods and pharmaceutical compositions for treating lymphoid malignancy” (priority 2011, dated 2024)

Experiments:
Assay in all cases: Ambit KinomeScan screening
Format in all cases: binding
Conditions in all cases: CAL-130 10 μM
HUNK = molecular target: T1, HUNK (Homo sapiens, UniProt P57058)
T1 construct: Ambit (KinomeScan screening)
How it was run: (§1)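 Here, % of control binding was determined for tagged kinases captured by an immobilized ligand in the presence of 10 μM CAL-130. Stronger interactions give lower percentages.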

PDPK1 = molecular target: T2, PDPK1 (Homo sapiens, UniProt O15530)
T2 construct: unspecified tag ('tagged kinases'); purchased Ambit (KinomeScan screening)
How it was run: as §1

MST4 = molecular target: T3, MST4 (Homo sapiens, UniProt Q9P289)
T3 construct: unspecified tag; purchased Ambit (KinomeScan screening panel)
How it was run: as §1

EGFR(L858R) = molecular target: T4, EGFR(L858R) (Homo sapiens, UniProt P00533, L858R)
T4 construct: unspecified tag; purchased Ambit (KinomeScan screening service)
How it was run: as §1

PHKG2 = molecular target: T5, PHKG2 (Homo sapiens, UniProt P15735)
T5 construct: unspecified tag ('tagged kinases'); purchased Ambit (KinomeScan screening)
How it was run: as §1

TAOK1 = molecular target: T6, TAOK1 (Homo sapiens, UniProt Q7L7X3)
T6 construct: tag (kind not specified); purchased Ambit (KinomeScan screening service)
How it was run: as §1

FLT3 = molecular target: T7, FLT3 (Homo sapiens, UniProt P36888)
T7 construct: unspecified tag; purchased Ambit (KinomeScan screening service)
How it was run: as §1

CDK7 = molecular target: T8, CDK7 (Homo sapiens, UniProt P50613)
T8 construct: purchased Ambit (KinomeScan screening)
How it was run: as §1

PKAC-β = molecular target: T9, PKAC-β (Homo sapiens, UniProt P22694)
T9 construct: unspecified tag; purchased Ambit (KinomeScan screening panel)
How it was run: as §1

TNK1 = molecular target: T10, TNK1 (Homo sapiens, UniProt Q13470)
T10 construct: unspecified tag (tagged kinase); purchased Ambit (KinomeScan screening)
How it was run: as §1

CDKL5 = molecular target: T11, CDKL5 (Homo sapiens, UniProt O76039)
T11 construct: purchased Ambit (KinomeScan screening service)
How it was run: as §1

RPS6KA4 = molecular target: T12, RPS6KA4 (Homo sapiens, UniProt O75676)
T12 construct: tag, kind not specified; purchased Ambit (KinomeScan screening service)
How it was run: as §1

BRSK1 = molecular target: T13, BRSK1 (Homo sapiens, UniProt Q8TDC3)
T13 construct: unspecified tag ("tagged kinases"); purchased Ambit (KinomeScan screening)
How it was run: as §1

PRKD3 = molecular target: T14, PRKD3 (Homo sapiens, UniProt O94806)
T14 construct: tag (kind not specified); purchased Ambit (KinomeScan screening service)
How it was run: as §1

FLT3(D835Y) = molecular target: T15, FLT3(D835Y) (Homo sapiens, UniProt P36888, D835Y)
T15 construct: unspecified tag; purchased Ambit (KinomeScan screening service)
How it was run: as §1

AXL = molecular target: T16, AXL (Homo sapiens, UniProt P30530)
T16 construct: purchased Ambit (KinomeScan screening service)
How it was run: as §1

MAP3K1 = molecular target: T17, MAP3K1 (Homo sapiens, UniProt Q13233)
T17 construct: Ambit (KinomeScan screening)
How it was run: as §1

RIPK4 = molecular target: T18, RIPK4 (Homo sapiens, UniProt P57078)
T18 construct: unspecified tag (tagged kinase); purchased Ambit (KinomeScan screening)
How it was run: as §1

ERBB4 = molecular target: T19, ERBB4 (Homo sapiens, UniProt Q15303)
T19 construct: unspecified tag ("tagged kinases"); purchased Ambit (KinomeScan screening service)
How it was run: as §1

FGFR4 = molecular target: T20, FGFR4 (Homo sapiens, UniProt P22455)
T20 construct: unspecified tag; purchased Ambit (KinomeScan screening service)
How it was run: as §1

EGFR(G719S) = molecular target: T21, EGFR(G719S) (Homo sapiens, UniProt P00533, G719S)
T21 construct: unspecified tag; purchased Ambit (KinomeScan screening service)
How it was run: as §1

IKK-α = molecular target: T22, IKK-α (Homo sapiens, UniProt O15111)
T22 construct: Ambit (KinomeScan screening)
How it was run: as §1

JAK1(JH2domain) = molecular target: T23, JAK1(JH2domain) (Homo sapiens, UniProt P23458)
T23 construct: JAK1(JH2domain); purchased Ambit (KinomeScan screening)
How it was run: as §1

p38-γ = molecular target: T24, p38-γ (Homo sapiens, UniProt P53778)
T24 construct: purchased Ambit (KinomeScan screening service)
How it was run: as §1

FLT3(D835H) = molecular target: T25, FLT3(D835H) (Homo sapiens, UniProt P36888, D835H)
T25 construct: unspecified tag; purchased Ambit (KinomeScan screening service)
How it was run: as §1

SRMS = molecular target: T26, SRMS (Homo sapiens, UniProt Q9H3Y6)
T26 construct: tag, kind not specified; purchased Ambit (KinomeScan screening service)
How it was run: as §1

ZAP70 = molecular target: T27, ZAP70 (Homo sapiens, UniProt P43403)
T27 construct: purchased Ambit (KinomeScan screening service)
How it was run: as §1

PCTK2 = molecular target: T28, PCTK2 (Homo sapiens, UniProt Q00537)
T28 construct: unspecified tag ('tagged kinases'); purchased Ambit (KinomeScan screening)
How it was run: as §1

AKT1 = molecular target: T29, AKT1 (Homo sapiens, UniProt P31749)
T29 construct: purchased Ambit (KinomeScan screening)
How it was run: as §1

SRPK2 = molecular target: T30, SRPK2 (Homo sapiens, UniProt P78362)
T30 construct: purchased Ambit (KinomeScan screening service)
How it was run: as §1

ABL1(T315I) = molecular target: T31, ABL1(T315I) (Homo sapiens, UniProt P00519, T315I)
T31 construct: unspecified tag ("tagged kinases"); purchased Ambit (KinomeScan screening)
How it was run: as §1

CSF1R = molecular target: T32, CSF1R (Homo sapiens, UniProt P07333)
T32 construct: purchased Ambit (KinomeScan screening service)
How it was run: as §1

MINK = molecular target: T33, MINK (Homo sapiens, UniProt Q8N4C8)
T33 construct: unspecified tag ('tagged kinases'); purchased Ambit (KinomeScan screening)
How it was run: as §1

BLK = molecular target: T34, BLK (Homo sapiens, UniProt P51451)
T34 construct: purchased Ambit (KinomeScan screening service)
How it was run: as §1

TESK1 = molecular target: T35, TESK1 (Homo sapiens, UniProt Q15569)
T35 construct: unspecified tag (tagged kinase); purchased Ambit (KinomeScan screening)
How it was run: as §1

MYLK2 = molecular target: T36, MYLK2 (Homo sapiens, UniProt Q9H1R3)
T36 construct: unspecified tag; purchased Ambit (KinomeScan screening panel)
How it was run: as §1

Measured: Percent of Control Binding

T11 sequence (O76039 whole entry): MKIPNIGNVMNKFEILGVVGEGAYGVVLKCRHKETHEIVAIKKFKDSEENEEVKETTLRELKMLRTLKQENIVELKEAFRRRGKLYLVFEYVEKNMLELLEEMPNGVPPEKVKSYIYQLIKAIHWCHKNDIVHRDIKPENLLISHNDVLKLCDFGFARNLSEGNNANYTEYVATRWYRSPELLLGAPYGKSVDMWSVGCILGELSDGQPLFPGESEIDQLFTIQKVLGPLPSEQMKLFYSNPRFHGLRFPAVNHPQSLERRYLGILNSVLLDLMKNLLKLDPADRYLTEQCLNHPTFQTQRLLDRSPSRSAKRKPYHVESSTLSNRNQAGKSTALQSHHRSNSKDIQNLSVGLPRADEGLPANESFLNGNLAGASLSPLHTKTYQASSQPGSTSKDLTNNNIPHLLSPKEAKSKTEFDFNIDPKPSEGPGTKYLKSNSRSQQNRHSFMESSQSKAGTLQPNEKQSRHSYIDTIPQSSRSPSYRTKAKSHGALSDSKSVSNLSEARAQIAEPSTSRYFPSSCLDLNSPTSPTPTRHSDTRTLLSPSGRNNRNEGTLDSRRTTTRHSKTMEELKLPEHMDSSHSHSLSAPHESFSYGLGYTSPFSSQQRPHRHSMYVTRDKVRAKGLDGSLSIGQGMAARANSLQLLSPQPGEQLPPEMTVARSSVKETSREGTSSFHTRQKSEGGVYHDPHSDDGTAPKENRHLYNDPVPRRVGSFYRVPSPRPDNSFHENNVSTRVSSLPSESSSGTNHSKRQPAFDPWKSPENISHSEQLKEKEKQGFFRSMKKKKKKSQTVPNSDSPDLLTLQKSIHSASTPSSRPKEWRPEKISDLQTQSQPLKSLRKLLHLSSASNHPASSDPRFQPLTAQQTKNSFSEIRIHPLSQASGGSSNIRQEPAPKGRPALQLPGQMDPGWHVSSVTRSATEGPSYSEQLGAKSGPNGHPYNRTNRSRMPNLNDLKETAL
T1 sequence (P57058 whole entry): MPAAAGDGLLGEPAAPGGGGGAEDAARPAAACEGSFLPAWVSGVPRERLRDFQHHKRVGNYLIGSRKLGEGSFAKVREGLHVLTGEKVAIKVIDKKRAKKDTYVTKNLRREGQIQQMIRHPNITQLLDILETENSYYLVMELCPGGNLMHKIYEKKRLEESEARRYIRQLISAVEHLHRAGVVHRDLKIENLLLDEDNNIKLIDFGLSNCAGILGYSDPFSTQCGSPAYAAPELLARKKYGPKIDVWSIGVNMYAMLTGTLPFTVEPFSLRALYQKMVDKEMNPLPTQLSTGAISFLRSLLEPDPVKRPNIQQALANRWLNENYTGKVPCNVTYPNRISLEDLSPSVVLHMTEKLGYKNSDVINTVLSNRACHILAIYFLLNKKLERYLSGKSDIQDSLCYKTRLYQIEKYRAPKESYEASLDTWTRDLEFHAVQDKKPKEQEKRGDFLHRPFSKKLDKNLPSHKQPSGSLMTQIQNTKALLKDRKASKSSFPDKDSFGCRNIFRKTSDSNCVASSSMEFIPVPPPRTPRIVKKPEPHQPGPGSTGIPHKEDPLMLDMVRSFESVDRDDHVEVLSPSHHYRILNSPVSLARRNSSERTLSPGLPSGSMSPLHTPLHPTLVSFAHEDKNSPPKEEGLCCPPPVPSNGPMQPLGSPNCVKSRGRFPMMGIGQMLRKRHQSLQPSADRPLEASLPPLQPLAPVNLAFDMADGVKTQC
T32 sequence (P07333 20-972): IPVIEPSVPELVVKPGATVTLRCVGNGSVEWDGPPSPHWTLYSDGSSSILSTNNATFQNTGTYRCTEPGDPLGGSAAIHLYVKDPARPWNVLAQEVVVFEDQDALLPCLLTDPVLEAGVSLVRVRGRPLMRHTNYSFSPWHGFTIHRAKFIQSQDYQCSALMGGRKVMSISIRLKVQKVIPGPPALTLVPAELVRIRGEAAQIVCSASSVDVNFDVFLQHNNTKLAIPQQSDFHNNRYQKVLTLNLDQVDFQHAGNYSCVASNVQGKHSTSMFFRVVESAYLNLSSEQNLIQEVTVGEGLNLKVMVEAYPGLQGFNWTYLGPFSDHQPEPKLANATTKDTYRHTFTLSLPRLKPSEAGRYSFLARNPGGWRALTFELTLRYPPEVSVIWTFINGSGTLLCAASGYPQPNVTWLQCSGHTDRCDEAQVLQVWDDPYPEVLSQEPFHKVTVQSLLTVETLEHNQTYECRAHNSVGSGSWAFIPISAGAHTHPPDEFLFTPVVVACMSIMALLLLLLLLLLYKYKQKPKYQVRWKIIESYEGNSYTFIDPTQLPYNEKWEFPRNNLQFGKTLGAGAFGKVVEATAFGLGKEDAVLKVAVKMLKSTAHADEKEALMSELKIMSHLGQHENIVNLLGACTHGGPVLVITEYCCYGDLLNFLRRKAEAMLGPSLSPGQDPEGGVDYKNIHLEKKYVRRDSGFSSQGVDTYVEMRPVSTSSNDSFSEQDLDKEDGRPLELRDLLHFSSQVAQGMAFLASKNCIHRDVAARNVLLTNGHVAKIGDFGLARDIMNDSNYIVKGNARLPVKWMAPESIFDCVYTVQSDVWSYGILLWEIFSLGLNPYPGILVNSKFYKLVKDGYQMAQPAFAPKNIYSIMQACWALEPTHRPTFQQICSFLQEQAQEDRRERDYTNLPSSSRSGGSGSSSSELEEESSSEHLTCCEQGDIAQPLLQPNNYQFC
T3 sequence (Q9P289 whole entry): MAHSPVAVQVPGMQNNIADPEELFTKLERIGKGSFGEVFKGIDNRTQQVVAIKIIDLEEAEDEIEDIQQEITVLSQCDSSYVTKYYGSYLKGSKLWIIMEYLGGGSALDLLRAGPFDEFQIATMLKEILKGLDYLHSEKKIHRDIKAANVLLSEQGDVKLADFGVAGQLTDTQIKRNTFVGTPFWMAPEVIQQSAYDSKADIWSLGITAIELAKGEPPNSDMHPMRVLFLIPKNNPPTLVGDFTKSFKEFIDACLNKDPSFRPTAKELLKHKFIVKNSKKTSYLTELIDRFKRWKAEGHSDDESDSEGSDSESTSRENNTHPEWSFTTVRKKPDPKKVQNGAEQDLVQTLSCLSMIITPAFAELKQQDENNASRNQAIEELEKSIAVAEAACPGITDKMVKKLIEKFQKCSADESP
T16 sequence (P30530 26-894): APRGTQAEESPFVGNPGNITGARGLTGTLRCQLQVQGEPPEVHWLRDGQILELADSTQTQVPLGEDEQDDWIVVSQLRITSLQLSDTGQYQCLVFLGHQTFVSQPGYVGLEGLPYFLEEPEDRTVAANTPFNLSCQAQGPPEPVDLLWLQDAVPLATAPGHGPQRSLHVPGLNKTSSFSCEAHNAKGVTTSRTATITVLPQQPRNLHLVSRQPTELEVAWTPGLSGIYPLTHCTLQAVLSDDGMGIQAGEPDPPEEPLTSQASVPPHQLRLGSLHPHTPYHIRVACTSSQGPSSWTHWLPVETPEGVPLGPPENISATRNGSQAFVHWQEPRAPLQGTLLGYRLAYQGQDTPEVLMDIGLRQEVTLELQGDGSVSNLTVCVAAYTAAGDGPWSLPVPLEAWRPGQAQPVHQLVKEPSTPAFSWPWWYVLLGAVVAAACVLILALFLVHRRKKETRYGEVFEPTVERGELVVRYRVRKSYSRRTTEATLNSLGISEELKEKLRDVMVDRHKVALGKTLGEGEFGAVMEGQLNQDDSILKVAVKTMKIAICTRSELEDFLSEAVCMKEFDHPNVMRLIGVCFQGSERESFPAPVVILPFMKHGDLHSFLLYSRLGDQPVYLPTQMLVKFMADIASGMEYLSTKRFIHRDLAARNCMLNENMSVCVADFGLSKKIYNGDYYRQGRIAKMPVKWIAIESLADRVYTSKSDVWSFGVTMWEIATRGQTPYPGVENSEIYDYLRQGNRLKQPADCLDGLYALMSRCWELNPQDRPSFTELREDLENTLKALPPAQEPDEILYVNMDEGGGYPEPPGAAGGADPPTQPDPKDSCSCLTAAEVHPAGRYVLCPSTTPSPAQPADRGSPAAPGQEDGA
T14 sequence (O94806 whole entry): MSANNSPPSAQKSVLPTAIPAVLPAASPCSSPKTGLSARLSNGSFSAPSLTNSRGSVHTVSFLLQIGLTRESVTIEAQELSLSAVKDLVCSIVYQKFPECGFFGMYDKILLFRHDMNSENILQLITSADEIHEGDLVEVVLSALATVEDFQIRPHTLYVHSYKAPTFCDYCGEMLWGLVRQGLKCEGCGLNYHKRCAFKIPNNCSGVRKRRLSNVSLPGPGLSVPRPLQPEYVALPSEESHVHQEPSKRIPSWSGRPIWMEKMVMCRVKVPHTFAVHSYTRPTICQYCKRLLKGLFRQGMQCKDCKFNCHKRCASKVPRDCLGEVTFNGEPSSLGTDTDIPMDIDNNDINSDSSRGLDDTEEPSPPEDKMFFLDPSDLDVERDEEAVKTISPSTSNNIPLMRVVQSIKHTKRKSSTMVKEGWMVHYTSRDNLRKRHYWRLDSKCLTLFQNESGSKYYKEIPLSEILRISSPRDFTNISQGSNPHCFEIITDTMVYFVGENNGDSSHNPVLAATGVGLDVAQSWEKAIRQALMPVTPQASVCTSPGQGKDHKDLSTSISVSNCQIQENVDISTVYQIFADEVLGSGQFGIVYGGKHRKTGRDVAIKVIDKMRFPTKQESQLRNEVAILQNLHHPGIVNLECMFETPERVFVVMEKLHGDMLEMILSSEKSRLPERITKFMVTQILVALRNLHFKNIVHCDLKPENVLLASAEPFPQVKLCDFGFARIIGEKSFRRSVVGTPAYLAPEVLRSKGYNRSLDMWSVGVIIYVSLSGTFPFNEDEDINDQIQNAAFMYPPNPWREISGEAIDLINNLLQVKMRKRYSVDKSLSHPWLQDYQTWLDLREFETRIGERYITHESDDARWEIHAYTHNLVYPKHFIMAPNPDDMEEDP
T23 sequence (P23458 583-855 limits assumed): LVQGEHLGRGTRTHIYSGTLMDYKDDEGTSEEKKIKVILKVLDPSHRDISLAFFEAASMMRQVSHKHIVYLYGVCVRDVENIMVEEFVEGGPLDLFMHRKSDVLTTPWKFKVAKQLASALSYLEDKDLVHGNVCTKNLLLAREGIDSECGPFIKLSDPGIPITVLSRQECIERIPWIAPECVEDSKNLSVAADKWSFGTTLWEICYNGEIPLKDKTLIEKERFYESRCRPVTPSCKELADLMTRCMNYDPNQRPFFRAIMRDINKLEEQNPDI

Cc1ccccc1-n1c(C(C)Nc2nc(N)nc3nc[nH]c23)nc2cccc(C)c2c1=O (stereo not drawn) [CAL-130]
100%: all assays above
